Ke data for three compounds are collected here from ChEMBL document CHEMBL1133634, “3-Deoxyclocinnamox: the first high-affinity, nonpeptide mu-opioid antagonist lacking a phenolic hydroxyl group” (J Med Chem, 2000).

In the test the target is Mu-type opioid receptor (Homo sapiens) (UniProt P35372). The test can be described thus: […] [35S]- GTPgammaS on Opioid receptor mu 1 in monkey brain membranes. It is filed as cell membranes. The note with it: Cercopithecidae, Membrane, target entry is the homologue from another species. (In general: Binding of GTPγS marks nucleotide exchange on a G protein.)
Chain of Mu-type opioid receptor (Homo sapiens) (P35372 whole entry): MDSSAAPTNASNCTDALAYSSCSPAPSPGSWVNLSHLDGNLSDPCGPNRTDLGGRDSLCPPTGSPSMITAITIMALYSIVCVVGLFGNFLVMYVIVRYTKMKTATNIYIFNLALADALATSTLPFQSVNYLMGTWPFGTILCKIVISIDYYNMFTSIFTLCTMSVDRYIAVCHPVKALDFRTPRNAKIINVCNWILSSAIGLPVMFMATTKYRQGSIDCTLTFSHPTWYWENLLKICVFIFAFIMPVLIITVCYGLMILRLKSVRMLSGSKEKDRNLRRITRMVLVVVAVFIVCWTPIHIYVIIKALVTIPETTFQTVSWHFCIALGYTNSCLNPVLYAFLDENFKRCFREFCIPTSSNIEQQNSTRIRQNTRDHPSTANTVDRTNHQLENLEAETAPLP

With `COc1ccc2c3c1O[C@H]1C(=O)CC[C@@]4(NC(=O)/C=C/c5ccc(Cl)cc5)[C@@H](C2)N(CC2CC2)CC[C@]314`, the Ke amounted to 6.37 nM. Consider `O=C(/C=C/c1ccc(Cl)cc1)N[C@@]12CCC(=O)[C@@H]3Oc4c(O)ccc5c4[C@@]31CCN(CC1CC1)[C@@H]2C5`, for which the Ke turned out to be 0.37 nM. In the case of `O=C(/C=C/c1ccc(Cl)cc1)NC12CCC(=O)C3Oc4cccc5c4[C@@]31CCN(CC1CC1)[C@@H]2C5` (stereo partly drawn), the Ke is 0.28 nM.
